Data: US20230357310A1, “Saponin derivatives with improved therapeutic window” (priority 2019, published 2023)
Like-named read-outs stand apart in the source and are kept apart here.

What was measured:
HeLa (EGFR+) cells = settings: saponin as single compound
Procedure: To extend this test, saponins from other sources were analyzed. A saponin purified from a root extract of Gypsophila elegans M. Bieb. […] FIG. 63C).

A431 (EGFR++) cells = experiment: Cell viability, saponin derivative with or without […] EGFdianthin; settings: A431, saponin as single compound
[1] = Critical micellar concentration (ANS fluorescence); type: physicochemical; settings: for CMC compared with native (underivatised) saponin: comparison in words
Procedure: The critical micellar concentration (CMC) of saponins derived from Saponaria officinalis (SO) (Table A7) and derived from Quillaja saponaria (QS) (Table A8, and Table A9) was determined by the method of DeVendittis et al. (A fluorimetric method for the estimation of the critical micelle concentration of surfactants, Analytical Biochemistry, Volume 115, Issue 2, August 1981, Pages 278-286) as follows:
The emission spectrum of 8-Anilinonaphthalene-1-sulfonic acid (ANS) in either purified water (MQ) or PBS (Dulbecco's PBS+/+) was determined at dry weight concentrations of saponins ranging from 1 to 1400 μM to cover the range below and above the CMC. Above the CMC, the fluorescence yield of ANS increases and the wavelength of maximum emission decreases due to portioning of the fluorescent dye into micelles. Fluorescence yields were recorded on a Fluoroskan Ascent FL (Thermo Scientific) at an excitation wavelength of 355 nm, and an emission wavelength of 460 nm. 6 μg at a concentration of 75.86 μM of ANS were used per sample and measurement.

[2] = test system: EGFR expressing cells (HeLa); experiment: cells; settings: for endosomal escape enhancing activity (enhancement of cytotoxicity of ADC / effector molecules): summary statement in the description
human red blood cells = experiment: cells
Procedure: Red blood cells (RBCs) were isolated from a buffy coat using a Ficoll gradient. The obtained RBC pellet (˜4-5 ml) was washed 2× with 50 ml DPBS (without Ca^2+/Mg^2+, PAN-Biotech GmbH). Cells were pelleted by centrifugation for 10 min, 800×g at RT. RBC were counted and resuspended at 500.000.000 c/ml in DPBS (without Ca^2+/Mg^2+), based on total cell count.
Saponin dilutions were prepared in DPBS (with Ca^2+/Mg^2+, PAN-Biotech GmbH), at 1.11×final strength. For positive lysis control a 0.02% Triton-X100 solution was prepared in DPBS^+/+. Of all compound solutions 135 μl was dispensed/well in a 96 well V-bottom plate. To this 15 μl RBC suspension was added and mixed shortly (10 sec-600 rpm). The plate was incubated 30 min at RT, with gentle agitation. Afterwards the plate was spun for 10 min at 800×g to pellet the RBC and 100-120 μl supernatant was transferred to a standard 96 wp (96 well-plate).

HeLa cells = experiment: cells; settings: for IC50: Homo sapiens, HeLa

Row | SMILES | CMC compared with native (underivatised) saponin [1] | endosomal escape enhancing activity (enhancement of cytotoxicity of ADC / effector molecules) [2] | also measured
1 | CC(=O)OC1C(C)OC(OC2C(C)OC(OC(=O)C34CCC(C)(C)CC3C3=CCC5C6(C)CCC(OC7OC(C(=O)O)C(O)C(OC8OCC(O)C(O)C8O)C7OC7OC(CO)C(O)C(O)C7O)C(C)(C=NNC(=O)CCOCCOCCOCCOCCN=[N+]=[N-])C6CCC5(C)C3(C)CC4O)C(OC3OC(C)C(OC4OCC(O)C(OC5OC(CO)C(O)C(O)C5O)C4O)C(O)C3O)C2O)C(O)C1OC1OCC(O)C(O)C1O (stereo not shown) |  |  | general toxicity in absence of EGFdianthin (HeLa (EGFR+) cells): above 10.000 nM; general toxicity in absence of EGFdianthin (A431 (EGFR++) cells): above 10.000 nM
2 | CC(=O)OC1C(C)OC(OC2C(C)OC(OC(=O)[C@]34CCC(C)(C)CC3C3=CCC5[C@@]6(C)CC[C@H](OC7OC(C(=O)O)C(O)C(OC8OCC(O)C(O)C8O)C7OC7OC(CO)C(O)C(O)C7O)[C@@](C)(C=O)C6CC[C@@]5(C)[C@]3(C)C[C@H]4O)C(OC3OC(C)C(OC4OCC(O)C(OC5OCC(O)C(O)C5O)C4O)C(O)C3O)C2O)C(O)C1OC(C)=O (stereo partly shown) [GE1741, reference compound] |  |  | general toxicity in absence of EGFdianthin (HeLa (EGFR+) cells): 5.000 nM
3 | CC(=O)OC1C(C)OC(OC2C(C)OC(OC(=O)[C@]34CCC(C)(C)CC3C3=CCC5[C@@]6(C)CC[C@H](OC7OC(C(=O)O)C(O)C(OC8OCC(O)C(O)C8O)C7OC7OC(CO)C(O)C(O)C7O)[C@@](C)(CO)C6CC[C@@]5(C)[C@]3(C)C[C@H]4O)C(OC3OC(C)C(OC4OCC(O)C(OC5OC(CO)C(O)C(O)C5O)C4O)C(O)C3O)C2O)C(O)C1OC1OCC(O)C(O)C1O (stereo partly shown) [Molecule 6] | increased CMC | have the capacity to enhance the cytotoxic effect | 
4 | CC1OC(OC2C(C)OC(OC(=O)[C@]34CCC(C)(C)CC3C3=CCC5[C@@]6(C)CC[C@H](OC7OC(C(=O)O)C(O)C(OC8OCC(O)C(O)C8O)C7OC7OC(CO)C(O)C(O)C7O)[C@@](C)(C=O)C6CC[C@@]5(C)[C@]3(C)C[C@H]4O)C(OC3OC(C)C(OC4OCC(O)C(OC5OC(CO)C(O)C(O)C5O)C4O)C(O)C3O)C2O)C(O)C(OC2OCC(O)C(O)C2O)C1O (stereo partly shown) [Molecule 8] | increased CMC | display activity | 
5 | CC1OC(OC2C(C)OC(OC(=O)[C@]34CCC(C)(C)CC3C3=CCC5[C@@]6(C)CC[C@H](OC7OC(C(=O)O)C(O)C(OC8OCC(O)C(O)C8O)C7OC7OC(CO)C(O)C(O)C7O)[C@@](C)(CO)C6CC[C@@]5(C)[C@]3(C)C[C@H]4O)C(OC3OC(C)C(OC4OCC(O)C(OC5OC(CO)C(O)C(O)C5O)C4O)C(O)C3O)C2O)C(O)C(OC2OCC(O)C(O)C2O)C1O (stereo partly shown) [Molecule 10] | increased CMC | have the capacity to enhance the cytotoxic effect | 
6 | CC(=O)OC1C(C)OC(OC2C(C)OC(OC(=O)C34CCC(C)(C)CC3C3=CCC5C6(C)CCC(OC7OC(C(=O)NC(C)(CO)CO)C(O)C(OC8OCC(O)C(O)C8O)C7OC7OC(CO)C(O)C(O)C7O)C(C)(C=NNC(=O)CCCCCN7C(=O)C=CC7=O)C6CCC5(C)C3(C)CC4O)C(OC3OC(C)C(OC4OCC(O)C(OC5OC(CO)C(O)C(O)C5O)C4O)C(O)C3O)C2O)C(O)C1OC1OCC(O)C(O)C1O (stereo not shown) [Molecule 14] |  | have the capacity to enhance the cytotoxic effect | 
7 | CC1OC(OC2C(C)OC(OC(=O)C34CCC(C)(C)CC3C3=CCC5C6(C)CCC(OC7OC(C(=O)O)C(O)C(OC8OCC(O)C(O)C8O)C7OC7OC(CO)C(O)C(O)C7O)C(C)(C=NNC(=O)CCCCCN7C(=O)C=CC7=O)C6CCC5(C)C3(C)CC4O)C(OC3OC(C)C(OC4OCC(O)C(OC5OC(CO)C(O)C(O)C5O)C4O)C(O)C3O)C2O)C(O)C(OC2OCC(O)C(O)C2O)C1O (stereo not shown) [Molecule 15] | increased CMC | have the capacity to enhance the cytotoxic effect | 
8 | CC(=O)OC1C(C)OC(OC2C(C)OC(OC(=O)[C@]34CCC(C)(C)CC3C3=CCC5[C@@]6(C)CC[C@H](OC7OC(C(=O)NCCN8C(=O)C=CC8=O)C(O)C(OC8OCC(O)C(O)C8O)C7OC7OC(CO)C(O)C(O)C7O)[C@@](C)(C=O)C6CC[C@@]5(C)[C@]3(C)C[C@H]4O)C(OC3OC(C)C(OC4OCC(O)C(OC5OC(CO)C(O)C(O)C5O)C4O)C(O)C3O)C2O)C(O)C1OC1OCC(O)C(O)C1O (stereo partly shown) [Molecule 18] |  | display activity | 
9 | CC1OC(OC2C(C)OC(OC(=O)[C@]34CCC(C)(C)CC3C3=CCC5[C@@]6(C)CC[C@H](OC7OC(C(=O)NCCN8C(=O)C=CC8=O)C(O)C(OC8OCC(O)C(O)C8O)C7OC7OC(CO)C(O)C(O)C7O)[C@@](C)(C=O)C6CC[C@@]5(C)[C@]3(C)C[C@H]4O)C(OC3OC(C)C(OC4OCC(O)C(OC5OC(CO)C(O)C(O)C5O)C4O)C(O)C3O)C2O)C(O)C(OC2OCC(O)C(O)C2O)C1O (stereo partly shown) [Molecule 19] |  | display activity | 
10 | CC(=O)OC1C(C)OC(OC2C(C)OC(OC(=O)[C@]34CCC(C)(C)CC3C3=CCC5[C@@]6(C)CC[C@H](OC7OC(C(=O)NCCN8C(=O)C=CC8=O)C(O)C(OC8OCC(O)C(O)C8O)C7OC7OC(CO)C(O)C(O)C7O)[C@@](C)(CO)C6CC[C@@]5(C)[C@]3(C)C[C@H]4O)C(OC3OC(C)C(OC4OCC(O)C(OC5OC(CO)C(O)C(O)C5O)C4O)C(O)C3O)C2O)C(O)C1OC1OCC(O)C(O)C1O (stereo partly shown) [Molecule 20] |  | have the capacity to enhance the cytotoxic effect | 
11 | CC(=O)OC1C(C)OC(OC2C(C)OC(OC(=O)[C@]34CCC(C)(C)CC3C3=CCC5[C@@]6(C)CC[C@H](OC7OC(C(=O)O)C(O)C(OC8OCC(O)C(O)C8O)C7OC7OC(CO)C(O)C(O)C7O)[C@@](C)(/C=N/NC(=O)CCCCCN7C(=O)C[C@H](SCCO)C7=O)C6CC[C@@]5(C)[C@]3(C)C[C@H]4O)C(OC3OC(C)C(OC4OCC(O)C(OC5OC(CO)C(O)C(O)C5O)C4O)C(O)C3O)C2O)C(O)C1OC1OCC(O)C(O)C1O (stereo partly shown) [SO1861-Ald-EMCH-blocked] | lower CMC values |  | IC50 (human red blood cells; Homo sapiens, Erythrocyte, read-out: IC50 nM (hemolysis)): 300000 nM; IC50 (human red blood cells; Homo sapiens, Erythrocyte, read-out: IC50 hemolytic activity): 300000 nM; hemolytic activity compared with unmodified saponin (human red blood cells; comparison in words): less hemolytically active; IC50 (human red blood cells; read-out: IC50 nM (hemolysis), red blood cells, Table A6): 300000 nM; CMC ([1]; SO saponins, determined in PBS, Table A7): 50 ± 5 µM; IC50 (HeLa cells; read-out: IC50 nM (Toxicity)): > 100000 nM; IC50 (HeLa cells; read-out: IC50 toxicity): > 100000 nM; cytotoxicity compared with unmodified saponin (HeLa cells; comparison in words): less cytotoxic; IC50 ([2]; Homo sapiens, HeLa, read-out: IC50 endosomal escape enhancing activity, in HeLa or A431, + 5 pM EGF-dianthin, summary range): 0.6 to 2 µM
